Experimental data as given in ChEMBL document CHEMBL1687848, “In vitro effect of qnrA1, qnrB1, and qnrS1 genes on fluoroquinolone activity against isogenic Escherichia coli isolates with mutations in gyrA and parC” (2011).
Values after ≈ are worked out from the molar mass of the structure shown.

Tests used:
Assay type in all cases: functional
Escherichia coli [1] = assay: Antibacterial activity against qnrB gene expressing Escherichia coli ATCC 25922 harboring ParC S80R mutant and pBK-QnrB1 by broth microdilution method
Escherichia coli [2] = assay: Antibacterial activity against Escherichia coli ATCC 25922 harboring GyrA S83L mutant assessed as earliest time required to resistant colonies visible one step below mutant prevention concentration
Escherichia coli [3] = assay: Antibacterial activity against qnrA gene expressing Escherichia coli ATCC 25922 harboring ParC S80R mutant and pBK-QnrA1 by broth microdilution method
Escherichia coli [4] = assay: Antibacterial activity against Escherichia coli ATCC 25922 by broth microdilution method
Escherichia coli [5] = assay: Antibacterial activity against qnrA gene expressing Escherichia coli ATCC 25922 harboring GyrA S83L mutant and pBK-QnrA1 assessed as earliest time required to resistant colonies visible one step below mutant prevention concentration
Escherichia coli [6] = assay: Antibacterial activity against qnrB gene expressing Escherichia coli ATCC 25922 harboring GyrA S83L mutant and pBK-QnrB1 assessed as mutant prevention concentration
Escherichia coli [7] = assay: Antibacterial activity against Escherichia coli ATCC 25922 harboring ParC S80R mutant by broth microdilution method
Escherichia coli [8] = assay: Antibacterial activity against Escherichia coli ATCC 25922 expressing qnrS gene and pBK-QnrS1 assessed as mutant prevention concentration
Escherichia coli [9] = assay: Antibacterial activity against Escherichia coli ATCC 25922 harboring GyrA S83L mutant and ParC S80R mutant by broth microdilution method
Escherichia coli [10] = assay: Antibacterial activity against Escherichia coli ATCC 25922 expressing qnrS gene and pBK-QnrS1 by broth microdilution method
Escherichia coli [11] = assay: Antibacterial activity against qnrS gene expressing Escherichia coli ATCC 25922 harboring GyrA S83L mutant and pBK-QnrS1 by broth microdilution method
Escherichia coli [12] = assay: Antibacterial activity against qnrB gene expressing Escherichia coli ATCC 25922 harboring GyrA S83L mutant and pBK-QnrB1 by broth microdilution method
Escherichia coli [13] = assay: Antibacterial activity against Escherichia coli ATCC 25922 assessed as mutant prevention concentration
Escherichia coli [14] = assay: Antibacterial activity against qnrA gene expressing Escherichia coli ATCC 25922 harboring ParC S80R mutant, ParC S80R mutant and pBK-QnrA1 by broth microdilution method
Escherichia coli [15] = assay: Antibacterial activity against Escherichia coli ATCC 25922 expressing qnrB gene and pBK-QnrB1 assessed as earliest time required to resistant colonies visible one step below mutant prevention concentration
Escherichia coli [16] = assay: Antibacterial activity against qnrS gene expressing Escherichia coli ATCC 25922 harboring GyrA S83L mutant and pBK-QnrS1 assessed as earliest time required to resistant colonies visible one step below mutant prevention concentration
Escherichia coli [17] = assay: Antibacterial activity against qnrA gene expressing Escherichia coli ATCC 25922 harboring GyrA S83L mutant and pBK-QnrA1 by broth microdilution method
Escherichia coli [18] = assay: Antibacterial activity against Escherichia coli ATCC 25922 expressing qnrA gene and pBK-QnrA1 by broth microdilution method
Escherichia coli [19] = assay: Antibacterial activity against Escherichia coli ATCC 25922 harboring GyrA S83L mutant assessed as mutant prevention concentration
Escherichia coli [20] = assay: Antibacterial activity against Escherichia coli ATCC 25922 expressing qnrB gene and pBK-QnrB1 assessed as mutant prevention concentration
Escherichia coli [21] = assay: Antibacterial activity against qnrS gene expressing Escherichia coli ATCC 25922 harboring GyrA S83L mutant and pBK-QnrS1 assessed as mutant prevention concentration
Escherichia coli [22] = assay: Antibacterial activity against qnrS gene expressing Escherichia coli ATCC 25922 harboring ParC S80R mutant, ParC S80R mutant and pBK-QnrS1 by broth microdilution method
Escherichia coli [23] = assay: Antibacterial activity against Escherichia coli ATCC 25922 expressing qnrA gene and pBK-QnrA1 assessed as mutant prevention concentration
Escherichia coli [24] = assay: Antibacterial activity against Escherichia coli ATCC 25922 harboring GyrA S83L mutant by broth microdilution method
Escherichia coli [25] = assay: Antibacterial activity against Escherichia coli ATCC 25922 expressing qnrA gene and pBK-QnrA1 assessed as earliest time required to resistant colonies visible one step below mutant prevention concentration
Escherichia coli [26] = assay: Antibacterial activity against qnrA gene expressing Escherichia coli ATCC 25922 harboring GyrA S83L mutant and pBK-QnrA1 assessed as mutant prevention concentration
Escherichia coli [27] = assay: Antibacterial activity against qnrB gene expressing Escherichia coli ATCC 25922 harboring GyrA S83L mutant and pBK-QnrB1 assessed as earliest time required to resistant colonies visible one step below mutant prevention concentration
Escherichia coli [28] = assay: Antibacterial activity against Escherichia coli ATCC 25922 expressing qnrS gene and pBK-QnrS1 assessed as earliest time required to resistant colonies visible one step below mutant prevention concentration
Escherichia coli [29] = assay: Antibacterial activity against Escherichia coli ATCC 25922 assessed as earliest time required to resistant colonies visible one step below mutant prevention concentration
Escherichia coli [30] = assay: Antibacterial activity against Escherichia coli ATCC 25922 expressing qnrB gene and pBK-QnrB1 by broth microdilution method
Escherichia coli [31] = assay: Antibacterial activity against qnrB gene expressing Escherichia coli ATCC 25922 harboring ParC S80R mutant, ParC S80R mutant and pBK-QnrB1 by broth microdilution method
Escherichia coli [32] = assay: Antibacterial activity against qnrS gene expressing Escherichia coli ATCC 25922 harboring ParC S80R mutant and pBK-QnrS1 by broth microdilution method

With O=C(O)c1cn(C2CC2)c2cc(N3CCNCC3)c(F)cc2c1=O [CIPROFLOXACIN] as the compound, how does the MBC (Escherichia coli [1]) read?
Its MBC is 0.25 µg/mL (≈ 0.754 µM).

What about the Time (Escherichia coli [2]) of the same compound?
The Time was 24 h.

What about the MBC (Escherichia coli [3]) of the same compound?
The MBC was 0.25 µg/mL (≈ 0.754 µM).

What about the MBC (Escherichia coli [4]) of the same compound?
The MBC was 0.015 µg/mL (≈ 0.0453 µM).

What about the Time (Escherichia coli [5]) of the same compound?
The Time was 24 h.

And the Activity (Escherichia coli [6])?
The Activity was 8 µg/mL.

And the MBC (Escherichia coli [7])?
Its MBC is 0.004 µg/mL (≈ 0.0121 µM).

What about the Activity (Escherichia coli [8]) of the same compound?
Its Activity is 4 µg/mL.

And the MBC (Escherichia coli [9])?
Its MBC is 2 µg/mL (≈ 6.04 µM).

And the MBC (Escherichia coli [10])?
The MBC was 0.25 µg/mL (≈ 0.754 µM).

What about the MBC (Escherichia coli [11]) of the same compound?
Its MBC is 1 µg/mL (≈ 3.02 µM).

And the MBC (Escherichia coli [12])?
The MBC was 0.5 µg/mL (≈ 1.51 µM).

And the Activity (Escherichia coli [13])?
Its Activity is 1 µg/mL.

What about the MBC (Escherichia coli [14]) of the same compound?
Its MBC is 4 µg/mL (≈ 12.1 µM).

What about the Time (Escherichia coli [15]) of the same compound?
Its Time is 72 h.

And the Time (Escherichia coli [16])?
The Time was 24 h.

What about the MBC (Escherichia coli [17]) of the same compound?
The MBC was 0.5 µg/mL (≈ 1.51 µM).

What about the MBC (Escherichia coli [18]) of the same compound?
Its MBC is 0.125 µg/mL (≈ 0.377 µM).

What about the Activity (Escherichia coli [19]) of the same compound?
The Activity was 4 µg/mL.

What about the Activity (Escherichia coli [20]) of the same compound?
Its Activity is 2 µg/mL.

And the Activity (Escherichia coli [21])?
The Activity was 8 µg/mL.

And the MBC (Escherichia coli [22])?
The MBC was 4 µg/mL (≈ 12.1 µM).

And the Activity (Escherichia coli [23])?
Its Activity is 8 µg/mL.

And the MBC (Escherichia coli [24])?
The MBC was 0.125 µg/mL (≈ 0.377 µM).

And the Time (Escherichia coli [25])?
The Time was 48 h.

What about the Activity (Escherichia coli [26]) of the same compound?
Its Activity is 16 µg/mL.

And the Time (Escherichia coli [27])?
The Time was 24 h.

And the Time (Escherichia coli [28])?
The Time was 24 h.

And the Time (Escherichia coli [29])?
Its Time is 48 h.

What about the MBC (Escherichia coli [30]) of the same compound?
Its MBC is 0.125 µg/mL (≈ 0.377 µM).

And the MBC (Escherichia coli [31])?
The MBC was 2 µg/mL (≈ 6.04 µM).

What about the MBC (Escherichia coli [32]) of the same compound?
Its MBC is 0.25 µg/mL (≈ 0.754 µM).
